Here are results for 40 compounds from patent EP0595557A1, “New substituted azetidinones as anti-inflammatory and antidegenerative agents” (MERCK & CO. INC., priority 1992, dated 1994).

One assay deals with T1, Human Polymorphonuclear Leukocyte Elastase (Homo sapiens, UniProt P08246).
T1 construct: Crude extract of human polymorphonuclear leukocytes (PMN) containing elastase activity; from tissue; host or cells: human polymorphonuclear leukocytes (crude extract)
T1 sequence (P08246 30-267): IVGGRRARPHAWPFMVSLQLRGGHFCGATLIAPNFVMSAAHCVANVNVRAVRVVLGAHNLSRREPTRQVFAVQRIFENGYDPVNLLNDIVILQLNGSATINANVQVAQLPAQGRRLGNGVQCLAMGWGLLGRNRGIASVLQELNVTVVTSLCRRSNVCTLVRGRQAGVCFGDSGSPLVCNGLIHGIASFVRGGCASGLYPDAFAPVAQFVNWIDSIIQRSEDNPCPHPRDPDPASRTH
Nature of the assay: Enzyme assay for inhibition of human polymorphonuclear leukocyte elastase via hydrolysis of Boc-AAPAN or Boc-AAPVN. Particulars: pH 7.5, second order rate constant for inactivation of the enzyme, expressed to the nearest thousand, read-out: Kobs/[I]. In kind it is biochemical. The method, then: Enzyme Assays for the Inhibition of Human Polymorphonuclear Leukocyte Elastase Via Hydrolysis of N-t-Boc-alanyl-alanyl-prolylalanine-p-nitroanilide (Boc-AAPAN) or N-t-Boc-alanyl-prolylvaline-p-nitro-anilide (Boc-AAPVN) Reagent:
0.05M TES (N-tris[hydroxymethyl]methyl-2-mino-ethanesulfonic acid) Buffer, pH 7.5.
0.2 mM Boc-AAPAN or Boc-AAPVN.
To prepare substrate, the solid was first dissolved in 10.0 ml DMSO. Buffer at pH 7.5 was then added to a final volume of 100 ml.
Crude extract of human polymorphonuclear leukocytes (PMN) containing elastase activity.
Inhibitors (azetidinones) to be tested dissolved in DMSO just before use.
To 1.0 ml of 0.2 mM Boc-AAPAN in a cuvette, 0.01-0.1 ml of DMSO with or without inhibitor was added. After mixing, a measurement was taken at 410 mµ to detect any spontaneous hydrolysis due to presence of test compound. 0.05 Milliliters of PMN extract was then added and the ΔOD/min at 410 mµ was measured and recorded. Beckman model 35 spectrophotometer was used.
Results were expressed to the nearest thousand ^kobs/I which is the second order rate constant in per mole per second for inactivation of the enzyme.
The elastase activity in the crude PMN extract may vary from one preparation to another. A control of each new batch is run, and the volume added in the assay procedure is adjusted according to activity.
`CCC[C@@H](NC(=O)N1C(=O)C(CC)(CC)[C@@H]1Oc1ccc(C(=O)NCCN2CCCC(O)C2)cc1)c1ccc(C)cc1` (stereo partly shown) [Compound 123]: the kinact/KI was found to be 1.53e+06 M⁻¹ s⁻¹.
As for `CCC[C@@H](NC(=O)N1C(=O)C(CC)(CC)[C@@H]1Oc1ccc(C(=O)N(C)CCN2CCCCCC2)cc1)c1ccc(C)cc1` [Compound 122], the kinact/KI worked out at 2.9e+06 M⁻¹ s⁻¹.
The same measure, in the same setting: the figure for `CCC[C@@H](NC(=O)N1C(=O)C(CC)(CC)[C@@H]1Oc1ccc(C(=O)N(C)CC(OC(C)=O)C(OC(C)=O)C(OC(C)=O)C(COC(C)=O)OC(C)=O)cc1)c1ccc(C)cc1` (stereo partly shown) [Compound 157] is 1.17e+06 M⁻¹ s⁻¹; for `CCCCN(C)C(=O)c1ccc(O[C@@H]2N(C(=O)N[C@H](CCC)c3ccc(CC)c(C(=O)N4CCOCC4)c3)C(=O)C2(CC)CC)cc1` [Compound 273] it is 3.26e+06 M⁻¹ s⁻¹; for `CCC[C@@H](NC(=O)N1C(=O)C(CC)(CC)[C@@H]1Oc1ccc(CC(=O)N(C)CCN(CC)CC)cc1)c1ccc(C)cc1` [Compound 55] it is 1.32e+06 M⁻¹ s⁻¹.
Still for that read-out and setting: next, `CCC[C@@H](NC(=O)N1C(=O)C(CC)(CC)[C@@H]1Oc1ccc(C(=O)NS(=O)(=O)CCN2CCOCC2)cc1)c1ccc(C)cc1` [Compound 87]: 775000 M⁻¹ s⁻¹; `CCC[C@@H](NC(=O)N1C(=O)C(CC)(CC)[C@@H]1Oc1ccc(C(=O)OCCCCCCN(C)C)cc1)c1ccc(C)cc1` [Compound 24, [S-(R*,S*)]-6-(dimethylamino)hexyl-4-[[3,3-diethyl-1-[[[1-(4-methyl-phenyl)butyl]amino]carbonyl]-4-oxo-2-azetidinyl]oxy]-benzoate]: 1.99e+06 M⁻¹ s⁻¹; `CCC[C@@H](NC(=O)N1C(=O)C(CC)(CC)[C@@H]1Oc1ccc(C(=O)NC2CC(C)(C)NC(C)(C)C2)cc1)c1ccc(C)cc1` [Compound 174]: 869000 M⁻¹ s⁻¹.
For `CCC[C@@H](NC(=O)N1C(=O)C(CC)(CC)[C@@H]1Oc1ccc(C(=O)N2CCN(c3cccc(Cl)c3)CC2)cc1)c1ccc(C)cc1` [Compound 244], the kinact/KI stood at 2.45e+06 M⁻¹ s⁻¹.
`CCC[C@@H](NC(=O)N1C(=O)C(CC)(CC)[C@@H]1Oc1ccc(C(=O)N(C)CCN2CC3CCC(CC3)C2)cc1)c1ccc(C)cc1` [Compound 103]: the kinact/KI is 3e+06 M⁻¹ s⁻¹.
On the same count and under the same terms, the figure for `CCC[C@@H](NC(=O)N1C(=O)C(CC)(CC)[C@@H]1Oc1ccc(C(=O)N(C)CCN2CCOCC2)cc1)c1ccc(C)cc1` [Compound 79] is 2.12e+06 M⁻¹ s⁻¹; for `C=CCN(CC=C)CCOC(=O)c1ccc(O[C@@H]2N(C(=O)N[C@H](CCC)c3ccc(C)cc3)C(=O)C2(CC)CC)cc1` [Compound 29, 2-(di-2-propenylamino)ethyl [S-(R*,S*)]-4-[[3,3-diethyl-1-[[[1-(4-methylphenyl)butyl]amino]carbonyl]-4-oxo-2-azetidinyl]oxy]benzoate] it is 891000 M⁻¹ s⁻¹.
Regarding `CCC[C@@H](NC(=O)N1C(=O)C(CC)(CC)[C@@H]1Oc1ccc(C(=O)N(C)C)cc1)c1ccc(C)cc1` [Compound 187], the kinact/KI stood at 1.75e+06 M⁻¹ s⁻¹.
The same measure, in the same setting: the figure for `CCC[C@@H](NC(=O)N1C(=O)C(CC)(CC)[C@@H]1Oc1ccc(C(=O)N2C[C@@H](C)O[C@@H](C)C2)cc1)c1ccc(C)cc1` [Compound 200] is 1.84e+06 M⁻¹ s⁻¹.
For the compound `C=CC(C)(C)NCCN(C)C(=O)c1ccc(O[C@@H]2N(C(=O)N[C@H](CCC)c3ccc(C)cc3)C(=O)C2(CC)CC)cc1` [Compound 226], the kinact/KI was 1.31e+06 M⁻¹ s⁻¹.
Same read-out and setting: next, `CCC[C@@H](NC(=O)N1C(=O)C(CC)(CC)[C@@H]1Oc1ccc(C(=O)OCCN2CCNCC2)cc1)c1ccc(C)cc1` [Compound 25]: 1.71e+06 M⁻¹ s⁻¹; `CCCC(NC(=O)N1C(=O)C(CC)(CC)C1Oc1ccc(C(=O)NCC(=O)N2CCCC2C(=O)NCc2ccccc2)cc1)c1ccc(C)cc1` (stereo not shown) [Compound 102]: 2.75e+06 M⁻¹ s⁻¹; `CCC[C@@H](NC(=O)N1C(=O)C(CC)(CC)[C@@H]1Oc1ccc(C(=O)OCCN(C(C)C)C(C)C)cc1)c1ccc(C)cc1` [Compound 21, 2-(diisopropylamino)ethyl [S-(R*,S*)]-4-[[3,3-diethyl-1-[[[1-(4-methyl-phenyl)butyl]amino]carbonyl]-4-oxo-2-azetidinyl]oxy]benzoate]: 1.67e+06 M⁻¹ s⁻¹.
On to `CCC[C@@H](NC(=O)N1C(=O)C(CC)(CC)[C@@H]1Oc1ccc(C(=O)N(C)CCN(C)Cc2ccc(C(F)(F)F)cc2)cc1)c1ccc(C)cc1` [Compound 180], for which the kinact/KI stood at 905000 M⁻¹ s⁻¹.
The same measure, in the same setting: the figure for `CCC[C@@H](NC(=O)N1C(=O)C(CC)(CC)[C@@H]1Oc1ccc(C(=O)N2CCC[C@@H]2CN2CCCC2)cc1)c1ccc(C)cc1` [Compound 154] is 1.67e+06 M⁻¹ s⁻¹.
Regarding `CCC[C@@H](NC(=O)N1C(=O)C(CC)(CC)[C@@H]1Oc1ccc(CC(=O)N2CCOCC2)cc1)c1ccc(C(=O)N(C)CCN(C)C)cc1` [Compound 283], the kinact/KI was 393000 M⁻¹ s⁻¹.
Still for that read-out and setting: the figure for `CCC[C@@H](NC(=O)N1C(=O)C(CC)(CC)[C@@H]1Oc1ccc(C(=O)N(C)CCN(C)C)cc1)c1ccc(C(=O)N2CCOCC2)cc1` [Compound 277] is 548000 M⁻¹ s⁻¹; for `CCC[C@@H](NC(=O)N1C(=O)C(CC)(CC)[C@@H]1Oc1ccc(C(=O)NC2CN(CC)N(CC)C2)cc1)c1ccc(C)cc1` [Compound 118] it is 1e+06 M⁻¹ s⁻¹.
On to `CCC[C@@H](NC(=O)N1C(=O)C(CC)(CC)[C@@H]1Oc1ccc(C(=O)N2CCOCC2)cc1)c1ccc(C(=O)N2CCOCC2)cc1` [Compound 280], for which the kinact/KI came out at 577000 M⁻¹ s⁻¹.
The same measure, in the same setting: next, `CCC[C@@H](NC(=O)N1C(=O)C(CC)(CC)[C@@H]1Oc1ccc(CC(=O)N2CCOCC2)cc1)c1ccc(C(=O)OCCN(C)C)cc1` [Compound 282]: 421000 M⁻¹ s⁻¹; `CCC[C@@H](NC(=O)N1C(=O)C(CC)(CC)[C@@H]1Oc1ccc(C(=O)N(C)CCNC2C3CC4CC(C3)CC2C4)cc1)c1ccc(C)cc1` (stereo partly shown) [Compound 221]: 3.01e+06 M⁻¹ s⁻¹; `CCC[C@@H](NC(=O)N1C(=O)C(CC)(CC)[C@@H]1Oc1ccc(C(=O)NS(=O)(=O)CCN(C)C)cc1)c1ccc(C)cc1` [Compound 88]: 788000 M⁻¹ s⁻¹.
The same measure, in the same setting: the figure for `CCC[C@@H](NC(=O)N1C(=O)C(CC)(CC)[C@@H]1Oc1ccc(C(=O)NCCN2CCC(O)CC2)cc1)c1ccc(C)cc1` [Compound 120, [S-(R+,S*)]-3,3-diethyl-2-[4-[[[2-(4-hydroxy-1-piperidinyl)ethyl]amino]carbonyl]phenoxy]-N-[1-(4-methyl-phenyl)butyl]-4-oxo-1-azetidine-carboxamide] is 1.73e+06 M⁻¹ s⁻¹; for `CCC[C@@H](NC(=O)N1C(=O)C(CC)(CC)[C@@H]1Oc1ccc(C(=O)N(C)CCN(C)C(C)=O)cc1)c1ccc(C)cc1` [Compound 105] it is 2.4e+06 M⁻¹ s⁻¹.
Turning to `CCC[C@@H](NC(=O)N1C(=O)C(CC)(CC)[C@@H]1Oc1ccc(C(=O)N(C)CCN(C)Cc2cc(OC)cc(OC)c2)cc1)c1ccc(C)cc1` [Compound 206], the kinact/KI was found to be 1.74e+06 M⁻¹ s⁻¹.
Still for that read-out and setting: next, `CCC[C@@H](NC(=O)N1C(=O)C(CC)(CC)[C@@H]1Oc1ccc(C(=O)N(C)CCN(CCOC)CCOC)cc1)c1ccc(C)cc1` [Compound 80]: 2.08e+06 M⁻¹ s⁻¹; `CCC[C@@H](NC(=O)N1C(=O)C(CC)(CC)[C@@H]1Oc1ccc(C(=O)N(C)CCN(C)S(C)(=O)=O)cc1)c1ccc(C)cc1` [Compound 107]: 2.53e+06 M⁻¹ s⁻¹; `CCC[C@@H](NC(=O)N1C(=O)C(CC)(CC)[C@@H]1Oc1ccc(C(=O)NC(C)[PH](=O)O)cc1)c1ccc(C)cc1` (stereo partly shown) [Compound 183]: 977000 M⁻¹ s⁻¹.
`CCC[C@@H](NC(=O)N1C(=O)C(CC)(CC)[C@@H]1Oc1ccc(C(=O)NCCN2CCCCC2)cc1)c1ccc(C)cc1` [Compound 90]: the kinact/KI worked out at 941000 M⁻¹ s⁻¹.
`CCC[C@@H](NC(=O)N1C(=O)C(CC)(CC)[C@@H]1Oc1ccc(C(=O)N(C)C2CCN(CCC)CC2)cc1)c1ccc(C)cc1` [Compound 216]: the kinact/KI worked out at 1.31e+06 M⁻¹ s⁻¹.
On to `CCC[C@@H](NC(=O)N1C(=O)C(CC)(CC)[C@@H]1Oc1ccc(C(=O)OCC[N+](C)(C)[O-])cc1)c1ccc(C)cc1` [Compound 15], for which the kinact/KI was found to be 2.16e+06 M⁻¹ s⁻¹.
As to `CCC[C@@H](NC(=O)N1C(=O)C(CC)(CC)[C@@H]1Oc1ccc(C(=O)N2CCCN(Cc3ccccc3)CC2)cc1)c1ccc(C)cc1` [Compound 155], the kinact/KI came to 1.98e+06 M⁻¹ s⁻¹.
The same measure, in the same setting: next, `CCC[C@@H](NC(=O)N1C(=O)C(CC)(CC)[C@@H]1Oc1ccc(C(=O)N(C)CCN(C)Cc2ccccn2)cc1)c1ccc(C)cc1` [Compound 150]: 2.16e+06 M⁻¹ s⁻¹.
Still for that read-out and setting: next, `CCC[C@@H](NC(=O)N1C(=O)C(CC)(CC)[C@@H]1Oc1ccc(C(=O)N(C)CCN2CCNCC2)cc1)c1ccc(C)cc1` [Compound 151]: 1.19e+06 M⁻¹ s⁻¹.

The assay is the same for the next values; noted with them: second order rate constant for inactivation of the enzyme, expressed to the nearest thousand; pH 7.5.
Turning to `CCCC(NC(=O)N1C(=O)C(CC)(CC)C1Oc1ccc(C(=O)OCCN(c2ccccc2)c2ccccc2)cc1)c1ccc(C)cc1` (stereo not drawn) [Compound 28, 2-(diphenylamino)ethyl[S-(R*,S*)]-4-[[3,3-diethyl-1-[[[1-(4-methylphenyl)butyl]amino]carbonyl]-4-oxo-2-azetidinyl]oxy]benzoate], the “Kobs/[I]” value is listed as 188,000 per mole per second.
